Tested on: CEM/VLB1000 cell line
Experiment: [3H]VLB accumulation in CEM/VLB1000 cells
Format: cell-based
Conditions: Homo sapiens, midpoint of minimum and maximum increase in accumulation of 3H-vinblastine (275 nM), 3 hours at 37° C
Protocol: ^3 H-vinblastine accumulation was also measured in the CEM/VLB1000 cell line. Corning Easy-Wash 96 well plates were pretreated with PBS and 1% BSA for 60 minutes and then removed. CEM/VLB1000 cells were seeded at 2×10^5, 40 μL volume. Plates were incubated at 37° C. for 30-60 minutes prior to use. The reference reversing agent, verapamil, or the compound of the present invention was added to the well followed by addition of media containing ^3 H-vinblastine (final concentration=275nM). Plates were allowed to incubate for 3 hours at 37° C. Cells were harvested onto pretreated Wallace filtermats A (pretreated with 0.1% polyethyleneimine) using a TomTek harvester-96. After filtering, the filtermats were allowed to dry completely. Meltix B scintillant was then added to the filtermats. The filters were then placed in a 90° C. oven for approximately 3-5 minutes and then removed. Scintillant was allowed to solidify on the filtermats. Filtermats were then placed in sample bags and read on a Wallace BetaPlate scintillation counter. The effects of compounds of the present invention in the cytotoxicity potentiation assays and vinblastine (VLB) accumulation assay are given in the Table below:
^2 Values presented are the midpoint (EC50 ) of the minimum and
maximum increase in accumulation of ^3 Hvinblastine caused by the
specfic compound of the present invention.

Point of comparison: `CN(C)c1ccc(-c2nc(-c3ccc(/C=C/CO)cc3)[nH]c2-c2ccc(N(C)C)cc2)cc1` [Example 113, 2-[4-(3-hydroxy-trans-1-propen-1-yl)phenyl]-4,5-bis (4-N,N-dimethylaminophenyl) imidazole], EC50 3900 nM. Against it:
- CN(C)C(=O)/C=C/c1ccc(-c2nc(-c3ccc(N(C)C)cc3)c(-c3ccc(N(C)C)cc3)[nH]2)cc1 [Example 111] — 2.3-fold lower, 1700 nM

Tested on: CEM/VLB1000 cell line
Experiment: Cytotoxicity potentiation: enhancement of vinblastine cytotoxicity in MDR cell line (alamar blue)
Format: cell-based, human
Conditions: Homo sapiens, midpoint of minimum and maximum cytotoxicity induced by 3-5 μg/mL vinblastine and compound, 48 hours incubation, alamar blue 24 hours, read-out: Cytotocicity Potentiation (EC50)
Protocol: Multidrug-resistant cell lines are easily obtainable for in vitro determination of drug sensitization by compounds of the present invention. In vitro potentiation of antineoplastic cytotoxicity by the imidazole derivatives of the present invention was measured in both CEM/VLB1000 and SK/VLB1000 cell lines. The multidrug resistant cell lines were obtained from Dr. Victor Ling, Ontario Cancer Institute, Toronto, Canada. The CEM/VLB 1000 cell line was maintained as a suspension in minimum essential medium supplemented with 10% fetal bovine serum in a humidied atmosphere of 95% air and 5% CO2 while the SK/VLB 1000 cell line was maintained as adherent cells using the identical medium conditions as the CEM cells. The CEM/VLB 1000 cells were seeded at a density of 5×10^4 cells/well in a 96 well microtiter plate while the SK/VLB 1000 cell line was seeded at a density of 2,500 cells/well after trypsinization.

Point of comparison: `CCOC/C=C/c1ccc(-c2nc(-c3ccc(OCC)cc3)c(-c3ccc(OCC)cc3)n2CCCn2ccnc2)cc1` [Example 106, 1-(3-imidazole-1-yl-propyl)-2-[4-(3-ethoxy-trans-1-propen-1-yl)phenyl]-4,5bis (4-diethoxyphenyl) imidazole], EC50 380 nM. Against it:
- CN(C)c1ccc(-c2nc(-c3ccc(/C=C/CO)cc3)[nH]c2-c2ccc(N(C)C)cc2)cc1 [Example 113, 2-[4-(3-hydroxy-trans-1-propen-1-yl)phenyl]-4,5-bis (4-N,N-dimethylaminophenyl) imidazole] — within 1.5-fold, 410 nM
- CN(C)C(=O)/C=C/c1ccc(-c2nc(-c3ccc(N(C)C)cc3)c(-c3ccc(N(C)C)cc3)[nH]2)cc1 [Example 111] — 1.6-fold higher, 620 nM
- CCOC/C=C/c1ccc(-c2nc(-c3ccc(NC(C)C)cc3)c(-c3ccc(NC)cc3)[nH]2)cc1 [Example 95, 2-[4-(3-ethoxy-trans-1-propen-1-yl)phenyl]-4-(4-N-methylaminophenyl)-5-(4-N-isopropylaminophenyl) imidazole] — 7.6-fold lower, 50 nM
- CCOC/C=C/c1ccc(-c2nc(-c3ccc(N4CCOCC4)cc3)c(-c3ccc(N4CCOCC4)cc3)[nH]2)cc1 [Example 92, 2-[4-(3-ethoxy-trans-1-propen-1-yl)phenyl]-4,5-bis (4-N-morpholinophenyl) imidazole] — 1.7-fold lower, 220 nM
- CN(C)c1ccc(-c2nc(-c3ccc(/C=C/c4nc5ccccc5s4)cc3)[nH]c2-c2ccc(N(C)C)cc2)cc1 [Example 62, 2-[trans-2-(2-benzthiazolyl)ethenylphenyl]-4,5-bis (4-N,N-dimethylaminophenyl) imidazole] — 2.7-fold higher, 1030 nM
- CN(C)c1ccc(-c2nc(-c3ccc(/C=C/c4nc5ccccc5o4)cc3)[nH]c2-c2ccc(N(C)C)cc2)cc1 [Example 56, 2-[trans-2-(2-benzoxazolyl)ethenylphenyl]-4,5-bis (4-N,N-dimethylaminophenyl) imidazole] — within 1.5-fold, 550 nM
- COC(=O)[C@@H]1C[C@H]1c1ccc(-c2nc(-c3ccc(N(C)C)cc3)c(-c3ccc(N(C)C)cc3)[nH]2)cc1 (relative stereo) [Example 101] — 1.9-fold lower, 200 nM
- CCOC/C=C/c1ccc(-c2nc(-c3ccc(OC)cc3)c(-c3ccc(OC)cc3)n2CCCn2ccnc2)cc1 [Example 105, 1-(3-imidazole-1-yl-propyl)-2-[4-(3-ethoxy-trans-1-propen-1-yl)phenyl]-4,5bis (4-dimethoxyphenyl) imidazole] — 1.7-fold higher, 650 nM
- CCOC/C=C/c1ccc(-c2nc(-c3ccc(N(CC)CC)cc3)c[nH]2)cc1 [Example 108, 2-[4-(3-ethoxy-trans-1-propen-1-yl)phenyl]-4-(4-N,N-diethylphenyl) imidazole] — within 1.5-fold, 300 nM
- CCOC/C=C/c1ccc(-c2nc(-c3ccc(NCC(C)C)cc3)c[nH]2)cc1 [Example 124, 2-[4-(3-ethoxy-trans-1-propen-1-yl)phenyl]-4-(4-N-isobutylphenyl) imidazole] — 1.5-fold lower, 250 nM
- CN(C)c1ccc(-c2nc(-c3ccc(/C=C/C#N)cc3)[nH]c2-c2ccc(N(C)C)cc2)cc1 [Example 64, 2-[trans-2-(2-cyano)ethenylphenyl]-4,5-(4-N,N-dimethylaminophenyl) imidazole] — within 1.5-fold, 550 nM
- COCCNc1ccc(-c2[nH]c(-c3ccc(/C=C/C#N)cc3)nc2-c2ccc(N(C)C)cc2)cc1 [Example 65] — 1.5-fold lower, 250 nM
- COCCOC/C=C/c1ccc(-c2nc(-c3ccc(N(C)C)cc3)c(-c3ccc(N(C)C)cc3)[nH]2)cc1 [Example 84, 2-{4-[3-(2-methoxy-ethoxy)-trans-1-propen-1-yl]phenyl}-4,5-bis (4-N,N-dimethylaminophenyl) imidazole] — 4.2-fold lower, 90 nM
- CCOC/C=C/c1ccc(-c2nc(-c3ccc(OC(C)C)cc3)c(-c3ccc(OC(C)C)cc3)[nH]2)cc1 [Example 104, 2-[4-(3-ethoxy-trans-1-propen-1-yl)phenyl]-4,5-bis (4diisopropyloxyphenyl) imidazole] — 1.5-fold lower, 250 nM
- CN(C)c1ccc(-c2nc(-c3ccc(/C=C/COC(=O)C(C)(C)C)cc3)[nH]c2-c2ccc(N(C)C)cc2)cc1 [Example 115, 2-[4-(3-pivalate-trans-1-propen-1-yl)phenyl]-4,5-bis (4-N,N-dimethylaminophenyl) imidazole] — within 1.5-fold, 480 nM
- CCOC/C=C/c1ccc(-c2nc(-c3ccc(NC(C)C)cc3)c(-c3ccc(F)cc3)[nH]2)cc1 [Example 121, 2-[4-(3-ethoxy-trans-1-propen-1-yl)phenyl]-4-(4-fluorophenyl)-5-(4-N-isopropylaminophenyl) imidazole] — 3.2-fold lower, 120 nM
- CCOC/C=C/c1ccc(-c2nc(-c3ccc(N(C)C)cc3)c(-c3ccc(NC)cc3)[nH]2)cc1 [Example 76, 2-[4-(3-ethoxy-trans-1-propen-1-yl)phenyl]-4-(4-N-dimethylaminophenyl)-5-(4-N-methylaminophenyl) imnidazole] — 3.5-fold lower, 110 nM
- CNc1ccc(-c2[nH]c(-c3ccc(/C=C/C(=O)OC)cc3)nc2-c2ccc(-n3ccnc3)cc2)cc1 [Example 70, 2-(trans-2-methoxycarbonyl-ethenylphenyl)-4-[4-(1-imidazolyl)phenyl]-5(4-N-methylaminophenyl) imidazole] — within 1.5-fold, 500 nM
- CNc1ccc(-c2nc(-c3ccc(/C=C/C(=O)OC)cc3)[nH]c2-c2ccc(N3CCCCC3)cc2)cc1 [Example 68, 2-(trans-2-methoxycarbonyl-ethenylphenyl) -4-(4-N-methylaminophenyl)5-(4-piperidinophenyl) imidazole] — within 1.5-fold, 390 nM
- CCNc1ccc(-c2[nH]c(-c3ccc(/C=C/COCC)cc3)nc2-c2ccc(NC(C)C)cc2)cc1 [Example 120, 2-[4-(3-ethoxy-trans-1-propen-1-yl)phenyl]-4-(4-N-ethylaminophenyl)-5(4-N-isopropylaminophenyl) imidazole] — 7.2-fold lower, 53 nM
- CCOC/C=C/c1ccc(-c2nc(-c3ccc(N4CCOCC4)cc3)c(C)[nH]2)cc1 [Example 127, 2-[4-(3-ethoxy-trans-1-propen-1-yl)phenyl]-4-(4-N-morpholinophenyl)-5methyl-imidazole] — within 1.5-fold, 330 nM
- CCOC/C=C/c1ccc(-c2nc(-c3ccc(N4CCCC4)cc3)c(-c3ccc(N4CCCC4)cc3)[nH]2)cc1 [Example 89, 2-[4-(3-ethoxy-trans-1-propen-1-yl)phenyl]-4,5-bis (4-pyrrolidinophenyl) imidazole] — 1.6-fold lower, 240 nM
- CNc1ccc(-c2nc(-c3ccc(/C=C/c4nc5ccccc5o4)cc3)[nH]c2-c2ccc(N3CCCC3)cc2)cc1 [Example 60, 2-[trans-2-(2-benzoxazolyl)ethenylphenyl]-4-(4-N-methylaminophenyl)-5-(4-pyrrolidinophenyl) imidazole] — within 1.5-fold, 450 nM
- CCOC/C=C/c1ccc(-c2nc(-c3ccc(N(CC)CC)cc3)c(-c3ccc(NC)cc3)[nH]2)cc1 [Example 87, 2-[4-(3-ethoxy-trans-1-propen-1-yl)phenyl]-4-(4-N,N-diethylaminophenyl)5-(4-N-methylaminophenyl) imidazole] — 6.3-fold lower, 60 nM
- CNc1ccc(-c2[nH]c(-c3ccc(/C=C/c4nc5ccccc5o4)cc3)nc2-c2ccc(N(C)C)cc2)cc1 [Example 57, 2-[trans-2-(2-benzoxazolyl)ethenylphenyl]-4-(4-N,N-dimethylaminophenyl)-5-(4-N-methylaminophenyl) imidazole] — 1.8-fold lower, 210 nM
- CCOC/C=C/c1ccc(-c2nc(-c3ccc(N(C)C)cc3)c(-c3ccc(N4CCOCC4)cc3)[nH]2)cc1 [Example 93, 2-[4-(3-ethoxy-trans-1-propen-1-yl)phenyl]-4-(4-N-dimethylaminophenyl)-5-(4-N-morpholinophenyl) imidazole] — 2.5-fold lower, 150 nM
- CCN(CC)c1ccc(-c2nc(-c3ccc(/C=C/c4nc5ccccc5o4)cc3)[nH]c2-c2ccc(NC)cc2)cc1 [Example 58, 2-[trans-2-(2-benzoxazolyl)ethenylphenyl]-4-(4-N,N-diethylaminophenyl)-5-(4-N-methylaminophenyl) imidazole] — within 1.5-fold, 470 nM
- CCOC/C=C/c1ccc(-c2nc(-c3ccc(NC(C)C)cc3)c[nH]2)cc1 [Example 123, 2-[4-(3-ethoxy-trans-1-propen-1-yl)phenyl]-4-(4-N-isopropylphenyl) imidazole] — within 1.5-fold, 340 nM

Same assay, conditions: midpoint of minimum and maximum cytotoxicity induced by 3-5 μg/mL vinblastine and compound, 48 hours incubation, alamar blue 24 hours, read-out: Cytotocicity Potentiation (EC50)

`CCN(CC)C/C=C/c1ccc(-c2nc(-c3ccc(N(C)C)cc3)c(-c3ccc(N(C)C)cc3)[nH]2)cc1` [Example 80, 2-[4-(3-N,N-diethylamino-trans-1-propen-1-yl)phenyl]-4,5-bis (4-N,N-dimethylaminophenyl) imidazole] gave an EC50 of 880 nM.
